This passage reports IC50 results from patent US11851426B2, “Bicyclic amines as CDK2 inhibitors” (Incyte Corporation, priority 2019, dated 2023).

pIC50: −log10 of the molar value.

For orientation: pIC50 means −log10 of the IC50, conventionally taken in molar units.

For the assay, the target named is CDK2/Cyclin E1 (Homo sapiens (Human), UniProt P24941). The assay can be described thus: CDK2/Cyclin E1 HTRF enzyme activity assay. The class given is biochemical. The note with it: 1 mM ATP; CDK2/Cyclin E1 0.25 nM; 60 minutes at room temperature. The method, then: Example A. CDK2/Cyclin E1 HTRF Enzyme Activity Assay
CDK2/Cyclin E1 enzyme activity assays utilize full-length human CDK2 co-expressed as N-terminal GST-tagged protein with FLAG-Cyclin E1 in a baculovirus expression system (Carna Product Number 04-165). Assays were conducted in white 384-well polystyrene plates in a final reaction volume of 8 μL. CDK2/Cyclin E1 (0.25 nM) was incubated with the compounds of the Examples (40 nL serially diluted in DMSO) in the presence of ATP (50 μM or 1 mM) and 50 nM ULight™-labeled eIF4E-binding protein 1 (THR37/46) peptide (PerkinElmer) in assay buffer (containing 50 mM HEPES pH 7.5, 1 mM EGTA, 10 mM MgCl2, 2 mM DTT, 0.05 mg/mL BSA, and 0.01% Tween 20) for 60 minutes at room temperature. The reactions were stopped by the addition of EDTA and Europium-labeled anti-phospho-4E-BP1 antibody (PerkinElmer), for a final concentration of 15 mM and 1.5 nM, respectively. HTRF signals were read after 1 hour at room temperature on a PHERAstar FS plate reader (BMG Labtech). Data was analyzed with IDBS XLFit and GraphPad Prism 5.0 software using a three or four parameter dose response curve to determine IC50 for each compound.
(In general: TR-FRET usually uses a lanthanide donor and a delayed reading to cut background.)
In turn, `CS(=O)(=O)N1CCC(Nc2nc3cc(-c4cn[nH]c4)ccn3n2)CC1` [Example 1, N-(1-(methylsulfonyl)piperidin-4-yl)-7-(1H-pyrazol-4-yl)-[1.2.4]triazolo[1,5-a]pyridin-2-amine] showed a pIC50 of no less than 7.70.

The compound `CCOc1c(-c2cn[nH]c2)ccn2nc(NC3CCN(S(C)(=O)=O)CC3)nc12` [Example 2, 8-ethoxy-N-(1-(methylsulfonyl)piperidin-4-yl)-7-(1H-pyrazol-4-yl)-[1.2.4]triazolo[1,5-a]pyridin-2-amine] showed a pIC50 of no less than 7.70.

Consider `CC(C)COc1c(-c2cn[nH]c2)ccn2nc(NC3CCN(S(C)(=O)=O)CC3)nc12` [Example 3, 8-isobutoxy-N-(1-(methylsulfonyl)piperidin-4-yl)-7-(1H-pyrazol-4-yl)-[1,2,4]triazolo[1,5-a]pyridin-2-amine], for which the pIC50 was no less than 7.70.

With `CS(=O)(=O)N1CCC(Nc2nc3c(OCC4CC4)c(-c4cn[nH]c4)ccn3n2)CC1` [Example 4, 8-(cyclopropylmethoxy)-N-(1-(methylsulfonyl)piperidin-4-yl)-7-(1H-pyrazol-4-yl)-[1,2,4]triazolo[1,5-a]pyridin-2-amine], the pIC50 is no less than 7.70.

Take `CS(=O)(=O)N1CCC(Nc2nc3c(OC4CCOCC4)c(-c4cn[nH]c4)ccn3n2)CC1` [Example 5, N-(1-(methylsulfonyl)piperidin-4-yl)-7-(1H-pyrazol-4-yl)-8-((tetrahydro-2H-pyran-4-yl)oxy)-[1,2,4]triazolo[1,5-a]pyridin-2-amine]: the pIC50 was no less than 7.70.

`COCCOc1c(-c2cn[nH]c2)ccn2nc(NC3CCN(S(C)(=O)=O)CC3)nc12` [Example 6, 8-(2-methoxyethoxy)-N-(1-(methylsulfonyl)piperidin-4-yl)-7-(1H-pyrazol-4-yl)-[1,2,4]triazolo[1,5-a]pyridin-2-amine] had a pIC50 of no less than 7.70.

`CS(=O)(=O)N1CCC(Nc2nc3cc(-c4cn[nH]c4)c(F)cn3n2)CC1` [Example 7, 6-fluoro-N-(1-(methylsulfonyl)piperidin-4-yl)-7-(1H-pyrazol-4-yl)-[1,2,4]triazolo[1,5-a]pyridin-2-amine] had a pIC50 of no less than 7.70.

As for `CS(=O)(=O)N1CCC(Nc2nc3cnc(-c4cn[nH]c4)cn3n2)CC1` [Example 8, N-(1-(methylsulfonyl)piperidin-4-yl)-6-(1H-pyrazol-4-yl)-[1,2,4]triazolo[1,5-a]pyrazin-2-amine], the pIC50 is no less than 7.70.

`CS(=O)(=O)N1CCC(Nc2nc3c(OCC(F)F)c(-c4cn[nH]c4)ccn3n2)CC1` [Example 9, 8-(2,2-difluoroethoxy)-N-(1-(methylsulfonyl)piperidin-4-yl)-7-(1H-pyrazol-4-yl)-[1,2,4]triazolo[1,5-a]pyridin-2-amine]: the pIC50 is no less than 7.70.

Turning to `CS(=O)(=O)N1CCC(Nc2nc3c(OCC(F)(F)F)c(-c4cn[nH]c4)ccn3n2)CC1` [Example 10, N-(1-(methylsulfonyl)piperidin-4-yl)-7-(1H-pyrazol-4-yl)-8-(2,2,2-trifluoroethoxy)-[1,2,4]triazolo[1,5-a]pyridin-2-amine], the pIC50 is no less than 7.70.

For the compound `CS(=O)(=O)N1CCC(Nc2nc3c(OCC4CCOC4)c(-c4cn[nH]c4)ccn3n2)CC1` (stereo not shown) [Example 11, N-(1-(methylsulfonyl)piperidin-4-yl)-7-(1H-pyrazol-4-yl)-8-((tetrahydrofuran-3-yl)methoxy)-[1,2,4]triazolo[1,5-a]pyridin-2-amine], the pIC50 is no less than 7.70.

`CCOc1c(-c2cn[nH]c2)ccn2nc(N[C@H]3CCN(S(C)(=O)=O)C[C@H]3C)nc12` [Example 12, 8-ethoxy-N-((3R,4S)-3-methyl-1-(methylsulfonyl)piperidin-4-yl)-7-(1H-pyrazol-4-yl)-[1,2,4]triazolo[1,5-a]pyridin-2-amine]: the pIC50 is no less than 7.70.

`CCOc1c(-c2cn[nH]c2)ccn2nc(N[C@H]3CCN(S(=O)(=O)C4CC4)C[C@H]3C)nc12` [Example 13, N-((3R,4S)-1-(cyclopropylsulfonyl)-3-methylpiperidin-4-yl)-8-ethoxy-7-(1H-pyrazol-4-yl)-[1,2,4]triazolo[1,5-a]pyridin-2-amine] gave a pIC50 of no less than 7.70.

As for `CC(C)Oc1c(-c2cn[nH]c2)ncn2nc(NC3CCN(S(C)(=O)=O)CC3)nc12` [Example 14, 8-isopropoxy-N-(1-(methylsulfonyl)piperidin-4-yl)-7-(1H-pyrazol-4-yl)-[1,2,4]triazolo[1,5-c]pyrimidin-2-amine], the pIC50 is no less than 7.70.

`CC(C)COc1c(-c2ccnc3[nH]ccc23)ccn2nc(NC3CCN(S(C)(=O)=O)CC3)nc12` [Example 15, 8-isobutoxy-N-(1-(methylsulfonyl)piperidin-4-yl)-7-(1H-pyrrolo[2,3-b]pyridin-4-yl)-[1,2,4]triazolo[1,5-a]pyridin-2-amine] had a pIC50 of no less than 7.70.

For `CC(C)COc1c(-c2ccnc(N)c2)ccn2nc(NC3CCN(S(C)(=O)=O)CC3)nc12` [Example 16, 7-(2-aminopyridin-4-yl)-8-isobutoxy-N-(1-(methylsulfonyl)piperidin-4-yl)-[1,2,4]triazolo[1,5-a]pyridin-2-amine], the pIC50 was no less than 7.70.

As to `CCOc1c(-c2c[nH]nc2C)ccn2nc(NC3CCN(S(C)(=O)=O)CC3)nc12` [Example 17, 8-ethoxy-7-(3-methyl-1H-pyrazol-4-yl)-N-(1-(methylsulfonyl)piperidin-4-yl)-[1,2,4]triazolo[1,5-a]pyridin-2-amine], the pIC50 was no less than 7.70.

`COC(=O)N1CCC(Oc2c(-c3cn[nH]c3)ccn3nc(NC4CCN(S(C)(=O)=O)CC4)nc23)CC1` [Example 18, Methyl 4-((2-((1-(methylsulfonyl)piperidin-4-yl)amino)-7-(1H-pyrazol-4-yl)-[1,2,4]triazolo[1,5-a]pyridin-8-yl)oxy)piperidine-1-carboxylate] had a pIC50 of no less than 7.70.

Compound `CCOc1c(-c2cn[nH]c2)ccn2nc(N[C@H]3CCN(S(=O)(=O)CCN4CC[C@@H](O)C4)C[C@H]3C)nc12` [Example 19, (R)-1-(2-(((3R,4S)-4-((8-ethoxy-7-(1H-pyrazol-4-yl)-[1,2,4]triazolo[1,5-a]pyridin-2-yl)amino)-3-methylpiperidin-1-yl)sulfonyl)ethyl)pyrrolidin-3-ol] gave a pIC50 of no less than 7.70.

As for `CCOc1c(-c2cn[nH]c2)ccn2nc(N[C@H]3CCN(S(=O)(=O)c4cnn(C)c4)C[C@H]3C)nc12` [Example 20, 8-ethoxy-N-((3R,4S)-3-methyl-1-((1-methyl-1H-pyrazol-4-yl)sulfonyl)piperidin-4-yl)-7-(1H-pyrazol-4-yl)-[1,2,4]triazolo[1,5-a]pyridin-2-amine], the pIC50 is no less than 7.70.

For the compound `CCOc1c(-c2cn[nH]c2)ccn2nc(N[C@H]3CCN(S(=O)(=O)c4cnn(C)n4)C[C@H]3C)nc12` [Example 21, 8-ethoxy-N-((3R,4S)-3-methyl-1-((2-methyl-2H-1,2,3-triazol-4-yl)sulfonyl)piperidin-4-yl)-7-(1H-pyrazol-4-yl)-[1,2,4]triazolo[1,5-a]pyridin-2-amine], the pIC50 was no less than 7.70.

In turn, `CS(=O)(=O)N1CCC(Nc2nc3c(-c4ccccc4)c(-c4cn[nH]c4)ccn3n2)CC1` [Example 22, N-(1-(methylsulfonyl)piperidin-4-yl)-8-phenyl-7-(1H-pyrazol-4-yl)-[1,2,4]triazolo[1,5-a]pyridin-2-amine] showed a pIC50 of no less than 7.70.
